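Following 48 hours of exposure in 96-well plates, responses at five concentrations were used to interpolate endpoints linearly. Here, GI50 denotes the concentration required for 50% inhibition of growth. The concentration for full growth arrest is given as TGI.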
Columns and labels:
Experiment in all cases: NCI tumour cell line growth inhibition, 48 h
HT29 colon = test system: HT29 colon
EKVX NSCLC = test system: EKVX NSCLC
SF-539 CNS = test system: SF-539 CNS
OVCAR-4 ovarian = test system: OVCAR-4 ovarian
OVCAR-8 ovarian = test system: OVCAR-8 ovarian
NCI-H460 lung = test system: NCI-H460 lung
RXF 393 renal = test system: RXF 393 renal
SR leukemia = test system: SR leukemia
SK-MEL-2 melanoma = test system: SK-MEL-2 melanoma
TK-10 renal = test system: TK-10 renal

Row | SMILES | TGI (HT29 colon) [µM] | TGI (EKVX NSCLC) [µM] | TGI (SF-539 CNS) [µM] | TGI (OVCAR-4 ovarian) [µM] | TGI (OVCAR-8 ovarian) [µM] | TGI (NCI-H460 lung) [µM] | TGI (RXF 393 renal) [µM] | TGI (SR leukemia) [µM] | TGI (SK-MEL-2 melanoma) [µM] | TGI (TK-10 renal) [µM] | GI50 (HT29 colon) [µM] | GI50 (EKVX NSCLC) [µM] | GI50 (SF-539 CNS) [µM] | GI50 (OVCAR-4 ovarian) [µM] | GI50 (OVCAR-8 ovarian) [µM] | GI50 (NCI-H460 lung) [µM] | GI50 (RXF 393 renal) [µM] | GI50 (SR leukemia) [µM] | GI50 (SK-MEL-2 melanoma) [µM] | GI50 (TK-10 renal) [µM]
1 | COc1ccc(/C=C2\CCC(CCN(C)C)(C3=CCCC3)C2=O)cc1 (stereo not drawn) | 32.8 | 39.9 | 30.8 | 44.5 | 34.9 | 40.5 | 22.7 | 88.5 | 32.9 | 30.7 |  |  |  |  |  |  |  |  |  | 
2 | COc1ccc(/C=C(\NC(=O)c2ccccc2)c2nc3ccccc3[nH]2)cc1OC | > 100 | > 100 | > 100 | > 100 | > 100 | > 100 | > 100 | > 100 | > 100 | > 100 |  |  |  |  |  |  |  |  |  | 
3 | COc1ccc2c(c1)C(=O)/C(=C/c1cccc(OCC(=O)Nc3nc(C)c(C)s3)c1)O2 | 0.111 | 15.3 | 0.0965 | 6.91 | 12.9 | 8.49 | 0.0418 | 0.0364 | 0.047 | 2.8 | 0.0302 | 0.677 | 0.052 | 2.03 | 0.647 | 2.71 | 0.0214 | 0.0184 | 0.0199 | 1.03
4 | COC(=O)C(=O)C(CC(=O)Nc1ccc(C)cc1)C(=O)OC (stereo not drawn) | > 100 | > 100 | > 100 | > 100 | > 100 | > 100 | > 100 | > 100 | > 100 | > 100 |  |  |  |  |  |  |  |  |  | 
5 | CC(C)(C)[Si](C)(C)OC1[C@@H](CNC(N)=O)O[C@@H](n2cnc3c(NC(=O)Nc4ccccc4)ncnc32)[C@H]1O[Si](C)(C)C(C)(C)C (stereo partly drawn) | 2.22 | 8.02 | 13.6 | 10.1 | 7.32 | 1.98 | 7.02 | 1.99 | 14.9 |  | 1.07 | 1.94 | 6.73 | 2.48 | 1.77 | 1.02 | 1.95 | 0.977 | 7.09 | 
6 | COc1ccc(/C=C2/C(=O)N(C(=O)c3ccccc3O)N=C2C)cc1 | > 100 | > 100 | 2.2 | > 100 | > 41.1 | > 100 | 1.23 | > 100 | > 100 | > 100 |  |  |  |  |  |  |  |  |  | 
7 | CC(=O)c1ccc2c(c1)N(CCCN1CCN(CCO)CC1)c1ccccc1S2 | 3.75 | 21 | 3.55 | 14.7 | 10.5 | 4.09 | 5.95 | 6.92 | 6.02 | 3.6 | 1.7 | 4.83 | 1.73 | 3.98 | 3.34 | 2.05 | 2.09 | 2.68 | 2.11 | 1.69
8 | O=C1c2cccnc2-c2nc(-c3cccnc3)cc3c2c1nc1ccccc13 |  | 32.7 | 3.6 | 19.8 | 3.96 |  | 11.3 | > 100 | 33.8 |  | 2.52 | 10.6 | 1.72 | 5.07 | 1.31 | 2.16 | 3.95 |  | 18 | 

Source: PubChem BioAssay (NCI)
